# Entries after “also recorded” stand apart in the source; their conditions may differ.
# Assays:
# MIA-MIA interaction [1] = biological target: T1, MIA-MIA interaction (Homo sapiens, UniProt Q16674); settings: disclosed in WO 2011/113604; cited from earlier work
# T1 sequence (Q16674 25-131): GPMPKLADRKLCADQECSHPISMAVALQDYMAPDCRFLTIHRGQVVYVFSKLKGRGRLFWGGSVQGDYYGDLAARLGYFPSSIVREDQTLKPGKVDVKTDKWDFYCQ
# kidney cells HEK-293 [2] = assay: proliferation of kidney cells; type: cell-based, human; settings: 7.8 μM, in vitro, HEK-293, FIG. 5C
# Protocol: (§1) In order to assess whether compounds of the present invention show any adverse effects on normal cells, human fibroblasts and kidney cells were treated with the compounds 1, 2, 3, 4, 5, and 6, respectively, in vitro at a concentration of 7.8 μM in analogy to previous studies (Schmidt, J., et al., Targeting melanoma metastasis and immunosuppression with a new mode of melanoma inhibitory activity (MIA) protein inhibition. PLoS One, 2012. 7(5): p. e37941; Riechers, A., et al., Heterogeneous transition metal-based fluorescence polarization (HTFP) assay for probing protein interactions. Biotechniques, 2009. 47(4): p. 837-44).
# MIA-MIA interaction [3] = biological target: T1, MIA-MIA interaction; assay: heterogeneous transition metal-based fluorescence polarization (HTFP) assay of MIA dimerization; type: binding; settings: FIG. 3
# Protocol: The dimerization of the MIA protein is for example measured by a heterogeneous transition metal-based fluorescence polarization (HTFP) assay, wherein the ratio P/P0 is measured. P is the fluorescence polarization signal of a MIA protein labeled with a transition metal complex in the presence of substrate bound MIA-protein and of a compound to be tested. P0 is the fluorescence polarization signal of free MIA-protein labeled with said luminescent transition metal complex in the absence of substrate bound MIA-protein and in the absence of the compound. In the absence of the compound, usually, the labeled MIA-protein would interact with the substrate bound MIA-protein, which, in turn, would contribute to a reduction in rotational mobility of the labeled MIA-protein, and therefore, the fluorescence polarization signal would increase upon such interaction. If, additionally, a compound is present that interferes with such interaction, no or little dimerization/aggregation occurs and no or little increase in fluorescence polarization signal would be detected. The smaller or even more negative P/P0 is, the stronger such interference with dimer formation and aggregation is, and the better such compound prevents or breaks up dimerization/aggregation of MIA protein. In an alternative embodiment, binding of the compound to MIA protein is determined by NMR, e.g., heteronuclear NMR, e.g., ^15N-^1H-HSQC-NMR.
# All listed compounds that were screened for their ability to interfere with the MIA-MIA interaction (Table 1) in a heterogeneous transition metal-based fluorescence polarization (HTFP) assay previously developed (Riechers, A., et al., Heterogeneous transition metal-based fluorescence polarization (HTFP) assay for probing protein interactions. Biotechniques, 2009. 47(4): p. 837-44). […] The molecular structures of the compounds showing interference with the MIA-MIA interaction in the HTFP assay are shown in Table 1.
# [4] = test system: human Mel-Im melanoma cells; assay: Boyden chamber migration assay; type: cell-based; settings: compound 1 μM, MIA 200 ng/mL, FIG. 4
# Protocol: The melanoma cell line Mel-Im, established from a human metastatic bioptic sample (generous gift from Dr. Johnson, University of Munich, Germany) was used for the Boyden chamber migration experiments. All cells were maintained in DMEM (PAA, Pasching, Germany) supplemented with penicillin (400 U/mL), streptomycin (50 μg/mL), L-glutamine (300 μg/mL) and 10% fetal calf serum (Pan Biotech GmbH, Aidenbach, Germany) and split in a 1:6 ratio every three days. Migration assays were performed in Boyden Chambers containing polycarbonate filters with […] (Neuro Probe, Gaithersburg, Md., USA) essentially as described. MIA was added to the cell suspension at a final concentration of 200 ng/mL. Selected compounds were used at a final concentration of 1 μM. Experiments were carried out in triplicates and repeated at least three times.
# human fibroblasts [5] = assay: proliferation of human fibroblasts; type: cell-based; settings: 7.8 μM, in vitro, FIG. 5A
# Protocol: as §1
# [6] = test system: human melanoma cell line Mel Im; assay: proliferation of melanoma cell line Mel Im; type: cell-based; settings: FIG. 6
# kidney cells HEK-293 [7] = assay: cellular attachment of kidney cells; type: cell-based, human; settings: 7.8 μM, in vitro, HEK-293, FIG. 5D
# Protocol: as §1
# human fibroblasts [8] = assay: cellular attachment of human fibroblasts; type: cell-based; settings: 7.8 μM, in vitro, FIG. 5B
# Protocol: as §1
fluorescence polarization of Ru-(bpy)3 labelled MIA (interference with the MIA-MIA interaction) (MIA-MIA interaction [3]),effect on cellular attachment of kidney cells (kidney cells HEK-293 [7]),effect on cellular attachment of human fibroblasts (human fibroblasts [8]),Molecule,blocking of the MIA-MIA interaction (MIA-MIA interaction [1]),effect on proliferation of kidney cells (kidney cells HEK-293 [2]),MIA activity on melanoma cell migration [4],effect on proliferation of human fibroblasts (human fibroblasts [5]),proliferation of the human melanoma cell line Mel Im after treatment [6]
–,–,–,AR71: a peptide having the amino acid sequence FHWRYPLPLPGQ (SEQ ID NO:1),able to block the MIA-MIA interaction,–,–,–,–
significant decreases,no negative effects,no negative effects,"CCCCNC(=O)c1c(O)nc2c(C)cccn2c1=O [Compound 6, N-butyl-2-hydroxy-9-methyl-4-oxo-4H-pyrido[1,2-a]pyrimidine-3-carboxamide]",–,no negative effects,reduction,no negative effects,could not be found
significant decreases,no negative effects,no negative effects,"CCCCCNC(=O)Cc1cc(=O)[nH]c(=O)[nH]1 [Compound 3, 2-(2,6-dioxo-1,2,3,6-tetrahydropyrimidin-4-yl)-N-Pentylacetamide]",–,no negative effects,reduction; also recorded: inhibition,no negative effects,could not be found
significant decreases,no negative effects,no negative effects,"CCC(C)N1CC(=O)C(c2nc3ccccc3[nH]2)=C1N (stereo not shown) [Compound 1, 5-amino-4-(1H-1,3-benzodiazol-2-yl)-1-(butan-2-yl)-2,3-dihydro-1H-pyrrol-3-one]",–,no negative effects,reduction; also recorded: inhibition,no negative effects,significant decrease; also recorded: inhibition
significant decreases,no negative effects,no negative effects,"CC(=O)c1c(C)cn(CC(O)CN2CCNCC2)c1C (stereo not shown) [Compound 4, 1-{1-[2-hydroxy-3-(piperazin-1-yl)propyl]-2,4-dimethyl-1H-pyrrol-3-yl}ethan-1-one]",–,no negative effects,reduction,no negative effects,could not be found

Molecule,fluorescence polarization of Ru-(bpy)3 labelled MIA (interference with the MIA-MIA interaction) (MIA-MIA interaction [3]),effect on cellular attachment of kidney cells (kidney cells HEK-293 [7]),effect on cellular attachment of human fibroblasts (human fibroblasts [8]),blocking of the MIA-MIA interaction (MIA-MIA interaction [1]),effect on proliferation of kidney cells (kidney cells HEK-293 [2]),MIA activity on melanoma cell migration [4],effect on proliferation of human fibroblasts (human fibroblasts [5]),proliferation of the human melanoma cell line Mel Im after treatment [6]
"COc1ccc2[nH]c(CN3CCNCC3)nc2c1 [Compound 5, 5-methoxy-2-(piperazin-1-ylmethyl)-1H-1,3-Benzodiazole]",significant decreases,no negative effects,no negative effects,–,no negative effects,reduction,no negative effects,could not be found
"CS(=O)(=O)NCC#CCN1CCc2ccccc2C1 [Compound 2, N-[4-(1,2,3,4-tetrahydroisoquinolin-2-yl)but-2-yn-1-yl]methanesulfonamide]",significant decreases,no negative effects,no negative effects,–,no negative effects,reduction; also recorded: inhibition,no negative effects,could not be found

# From patent US10828281B2, “Non-hydrophobic compounds for use in treating metastasis and/or cartilage defect” (Friedrich-Alexander-Universität Erlangen-Nürnberg, priority 2015, dated 2020)
